Test results published in US20260007758A1, “SO[…]-2 RECEPTOR (SST2R) NON-PEPTIDE DRUG CONJUGATES AND USES THEREOF” (Crinetics Pharmaceuticals, Inc., priority 2024, published 2026).

Assays:
Format in all cases: cell-based
[1] = target: T1, human somatostatin receptor subtype 2 (Homo sapiens, UniProt P30874); test: Functional assay for SSTR2 agonists (HTRF cAMP); details: CHO-K1 cells stably expressing human SST2; NKH477-stimulated cAMP; 20 min at 37 C; read-out: hSST2 cAMP Avg EC50
T1 construct: expressed in transfected cells
T1 sequence (P30874 whole entry): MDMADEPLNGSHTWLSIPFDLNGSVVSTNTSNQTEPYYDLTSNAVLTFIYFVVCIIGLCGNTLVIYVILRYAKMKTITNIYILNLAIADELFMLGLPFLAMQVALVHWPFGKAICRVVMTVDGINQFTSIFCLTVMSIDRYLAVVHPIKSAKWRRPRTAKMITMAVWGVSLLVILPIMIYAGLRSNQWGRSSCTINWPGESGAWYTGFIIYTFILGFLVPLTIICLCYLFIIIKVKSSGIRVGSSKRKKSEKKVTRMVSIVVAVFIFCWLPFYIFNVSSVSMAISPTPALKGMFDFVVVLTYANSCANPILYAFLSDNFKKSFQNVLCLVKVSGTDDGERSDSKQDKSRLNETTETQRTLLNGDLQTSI
Outline: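 CHO-K1 cells stably expressing human SSTR2 treated with compound (typically 0-10,000 nM final) for 20 min at 37 °C. Lysate cAMP measured by HTRF (665/620 nm ratio), converted via standard curve; EC50 from cAMP vs concentration.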

[2] = test system: NCI-H524 human small cell lung cancer cells; test: H524 assay: inhibition of cell proliferation (CellTiter Glo); details: 2 h treatment, washout, additional 70 h incubation
Outline: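 NCI-H524 cells were exposed for 2 h to NDC in an 11-point two-fold series starting at 1 uM. The drug was then washed out and cells grew a further 70 h. CellTiter Glo luminescence gave % inhibition versus untreated control, and IC50 came from a four-parameter nonlinear regression.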

SST2 = target: T2, SST2 (Homo sapiens, UniProt P30874); test: PathHunter CHO-K1 SST2 Internalization Assay; details: PathHunter CHO-K1 SST2 cells; 90 min at 37 C; luminescence; read-out: Internalization EC50
T2 construct: host or cells: PathHunter CHO-K1 SST2 cells
T2 sequence (P30874 whole entry): as above
Outline: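 CHO-K1 cells expressing human SST2, 2500 cells/well, grown 48 h, then exposed 90 min at 37 C to 11-point 1:3 NDC dilutions (final top 10 uM). Beta-Glo luminescence after 60 min at room temperature; four-parameter IC50, duplicate mean, background-corrected.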

Row | SMILES | EC50 [1] | EC50 [2] | EC50 (SST2)
1 | CC[C@H](C)[C@@H]([C@@H](CC(=O)N1CCC[C@H]1[C@H](OC)[C@@H](C)C(=O)N[C@H](C)[C@@H](O)c1ccccc1)OC)N(C)C(=O)[C@@H](NC(=O)[C@H](C(C)C)N(C)C(=O)OCc1ccc(NC(=O)[C@H](CCCNC(N)=O)NC(=O)[C@@H](NC(=O)[C@@H](CS(=O)(=O)O)NC(=O)CCOCCC(=O)NCCNc2ncc(-c3cc(C)cc(F)c3)c(N3CCC(N)CC3)c2-c2nc3ccc(Cl)cc3[nH]2)C(C)C)cc1C(=O)NCCN)C(C)C [Compound 29] | 0.076 nM | 2.6 nM | 8.5 nM
2 | CC[C@H](C)[C@@H]([C@@H](CC(=O)N1CCC[C@H]1[C@H](OC)[C@@H](C)C(=O)N[C@H](C)[C@@H](O)c1ccccc1)OC)N(C)C(=O)[C@@H](NC(=O)[C@H](C(C)C)N(C)C(=O)OCc1ccc(NC(=O)[C@H](CCCNC(N)=O)NC(=O)[C@@H](NC(=O)C[C@@H](N)C(=O)NCCOCCOCCOCCOCCC(=O)NCCNc2ncc(-c3cc(C)cc(F)c3)c(N3CCC(N)CC3)c2-c2nc3ccc(Cl)cc3[nH]2)C(C)C)c(OCC(=O)O)c1)C(C)C [Compound 23] | 0.29 nM | 32 nM | 20 nM
3 | CC[C@H](C)[C@@H]([C@@H](CC(=O)N1CCC[C@H]1[C@H](OC)[C@@H](C)C(=O)N[C@H](C)[C@@H](O)c1ccccc1)OC)N(C)C(=O)[C@@H](NC(=O)[C@H](C(C)C)N(C)C(=O)OCc1ccc(NC(=O)[C@H](CCCNC(N)=O)NC(=O)[C@@H](NC(=O)[C@H](CCc2nnn[nH]2)NC(=O)CCOCCC(=O)NCCNc2ncc(-c3cc(C)cc(F)c3)c(N3CCC(N)CC3)c2-c2nc3ccc(Cl)cc3[nH]2)C(C)C)cc1)C(C)C [Compound 176] | 0.28 nM | 620 nM | 3.7 nM
4 | CC[C@H](C)[C@@H]([C@@H](CC(=O)N1CCC[C@H]1[C@H](OC)[C@@H](C)C(=O)N[C@H](C)[C@@H](O)c1ccccc1)OC)N(C)C(=O)[C@@H](NC(=O)[C@H](C(C)C)N(C)C(=O)OCc1ccc(NC(=O)[C@H](C)NC(=O)[C@@H](NC(=O)CCOCCC(=O)NCCNc2ncc(-c3cc(F)cc(OC)c3)c(N3CCC(N)CC3)c2-c2nc3ccc(Cl)cc3[nH]2)C(C)C)c(O[C@@H]2O[C@H](C(=O)O)[C@@H](O)[C@H](O)[C@H]2O)c1)C(C)C [Compound 139] | 0.1 nM | 30 nM | 4.9 nM
5 | CC[C@H](C)[C@@H]([C@@H](CC(=O)N1CCC[C@H]1[C@H](OC)[C@@H](C)C(=O)N[C@H](C)[C@@H](O)c1ccccc1)OC)N(C)C(=O)[C@@H](NC(=O)[C@H](C(C)C)N(C)C(=O)OCc1ccc(NC(=O)[C@H](C)NC(=O)[C@@H](NC(=O)CCOCCC(=O)NCCNc2ncc(-c3cc(C)cc(F)c3)c(N3CCC(N)CC3)c2-c2nc3ccc(Cl)cc3[nH]2)C(C)C)c(O[C@@H]2O[C@H](C(N)=O)[C@@H](O)[C@H](O)[C@H]2O)c1)C(C)C [Compound 34] | 0.12 nM | 1.6 nM | 4.4 nM
6 | CC[C@H](C)[C@@H]([C@@H](CC(=O)N1CCC[C@H]1[C@H](OC)[C@@H](C)C(=O)N[C@H](C)[C@@H](O)c1ccccc1)OC)N(C)C(=O)[C@@H](NC(=O)[C@H](C(C)C)N(C)C(=O)OCc1ccc(NC(=O)[C@H](C)NC(=O)[C@@H](NC(=O)CCOCCOCCOCCOCCC(=O)NCCNc2ncc(-c3cc(C)cc(F)c3)c(N3CCC(N)CC3)c2-c2cc3ccc(Cl)cc3[nH]2)C(C)C)c(O[C@@H]2O[C@H](C(=O)O)[C@@H](O)[C@H](O)[C@H]2O)c1)C(C)C [Compound 112] | 0.12 nM | 10 nM | 8.4 nM
7 | CC[C@H](C)[C@@H]([C@@H](CC(=O)N1CCC[C@H]1[C@H](OC)[C@@H](C)C(=O)N[C@H](C)[C@@H](O)c1ccccc1)OC)N(C)C(=O)[C@@H](NC(=O)[C@H](C(C)C)N(C)C(=O)OCc1ccc(NC(=O)[C@H](CCCNC(N)=O)NC(=O)[C@@H](NC(=O)CCOCCC(=O)NCCNc2ncc(-c3cc(C)cc(F)c3)c(N3CCC(N)CC3)c2-c2nc3ccc(Cl)cc3[nH]2)C(C)C)c(O[C@@H]2O[C@H](C(=O)N(C)CCOCCC(=O)O)[C@@H](O)[C@H](O)[C@H]2O)c1)C(C)C [Compound 231] | 0.33 nM | 49 nM | 12 nM
8 | CC[C@H](C)[C@@H]([C@@H](CC(=O)N1CCC[C@H]1[C@H](OC)[C@@H](C)C(=O)N[C@H](C)[C@@H](O)c1ccccc1)OC)N(C)C(=O)[C@@H](NC(=O)[C@H](C(C)C)N(C)C(=O)OCc1ccc(NC(=O)[C@H](CCCNC(N)=O)NC(=O)[C@@H](NC(=O)[C@H](CCC(=O)O)NC(=O)CCOCCC(=O)NCCNc2ncc(-c3cc(C)cc(F)c3)c(N3CCC(N)CC3)c2-c2nc3ccc(Cl)cc3[nH]2)C(C)C)c(OC)c1)C(C)C [Compound 16] | 0.083 nM | 160 nM | 7.8 nM
9 | CC[C@H](C)[C@@H]([C@@H](CC(=O)N1CCC[C@H]1[C@H](OC)[C@@H](C)C(=O)N[C@H](C)[C@@H](O)c1ccccc1)OC)N(C)C(=O)[C@@H](NC(=O)[C@H](C(C)C)N(C)C(=O)OCc1ccc(NC(=O)[C@H](CCCNC(N)=O)NC(=O)[C@@H](NC(=O)CCOCCOCCOCCOCCC(=O)NCCNc2ncc(-c3cc(C)cc(F)c3)c(N3CCC(N)CC3)c2-c2nc3ccc(Cl)cc3[nH]2)C(C)C)cc1C(=O)O)C(C)C [Compound 4] | 0.11 nM | 740 nM | 3.8 nM
10 | CC[C@H](C)[C@@H]([C@@H](CC(=O)N1CCC[C@H]1[C@H](OC)[C@@H](C)C(=O)N[C@H](C)[C@@H](O)c1ccccc1)OC)N(C)C(=O)[C@@H](NC(=O)[C@H](C(C)C)N(C)C(=O)OCc1ccc(NC(=O)[C@H](CCCNC(N)=O)NC(=O)[C@@H](NC(=O)c2cc(C(=O)NCC(=O)O)cc(N(C)CCOCCC(=O)NCCNc3ncc(-c4cc(C)cc(F)c4)c(N4CCC(N)CC4)c3-c3nc4ccc(Cl)cc4[nH]3)c2)C(C)C)cc1)C(C)C [Compound 158] | 0.15 nM | 40 nM | 5.1 nM
11 | CC[C@H](C)[C@@H]([C@@H](CC(=O)N1CCC[C@H]1[C@H](OC)[C@@H](C)C(=O)N[C@H](C)[C@@H](O)c1ccccc1)OC)N(C)C(=O)[C@@H](NC(=O)[C@H](C(C)C)N(C)C(=O)OCc1ccc(NC(=O)[C@H](CCCNC(N)=O)NC(=O)[C@@H](NC(=O)[C@H](CCC(=O)O)NC(=O)CCOCCC(=O)NCCNc2ncc(-c3cc(C)cc(F)c3)c(N3CCC(N)CC3)c2-c2nc3cc(F)cc(OC)c3[nH]2)C(C)C)cc1C(=O)NCCN)C(C)C [Compound 79] | 0.12 nM | 7.7 nM | 5.1 nM
12 | CC[C@H](C)[C@@H]([C@@H](CC(=O)N1CCC[C@H]1[C@H](OC)[C@@H](C)C(=O)N[C@H](C)[C@@H](O)c1ccccc1)OC)N(C)C(=O)[C@@H](NC(=O)[C@H](C(C)C)N(C)C(=O)OCc1ccc(NC(=O)[C@H](CCCNC(N)=O)NC(=O)[C@@H](NC(=O)CCOCCC(=O)N(C)CC(=O)NCCNc2ncc(-c3cc(C)cc(F)c3)c(N3CCC(N)CC3)c2-c2nc3ccc(Cl)cc3[nH]2)C(C)C)c(O)c1)C(C)C [Compound 199] | 0.071 nM | 8.9 nM | 4.1 nM
13 | CC[C@H](C)[C@@H]([C@@H](CC(=O)N1CCC[C@H]1[C@H](OC)[C@@H](C)C(=O)N[C@H](C)[C@@H](O)c1ccccc1)OC)N(C)C(=O)[C@@H](NC(=O)[C@H](C(C)C)N(C)C(=O)OCc1ccc(NC(=O)[C@H](CCCNC(N)=O)NC(=O)[C@@H](NC(=O)CCOCCC(=O)NCCNc2ncc(-c3cc(C)cc(F)c3)c(N3CCC(N)CC3)c2-c2nc3ccc(Cl)cc3[nH]2)C(C)C)c(OCCN)c1)C(C)C [Compound 10] | 0.21 nM | 0.76 nM | 2.7 nM
